Source: paper PMC6624297 (Cell Death & Disease, 2019)

How the values were obtained:
A549 cells = experiment: MTT assay A549; type: cell-based, human; details: Homo sapiens, A549, 24h of treatment, mean ± SD
Protocol: (§1) Details are given in Supplementary Materials and Methods. Using probability unit and weighted regression method to calculate the IC50 value of compounds.
(§2) Total cells in the logarithmic growth phase were collected, digested using 0.25% pancreatic enzymes, and then diluted into single-cell suspensions using phosphate-buffered solution (PBS). These cells were seeded into 96-well plates at 4× 10^3-5× 10^3 cells per well (100 µL per well) and then A549, H460, OVCAR-3, SGC7901, MDA-MB-231, HCT116 and HepG2 were cultured at 37°Cin an incubator containing 5% CO2. After cell complete attachment, 100 µL of different concentrations of compounds (0.625 μM, 1.25 μM, 2.5μM, 5 μM, 10 μM) were added to the cells after the nutrient solution in each well was discarded, while no compound except 0.1% DMSO was added to cells in the control group; at the same time, each concentration was set up to 5 wells. In addition, 5 wells in each 96-well plate only received 100 µL of nutrient solution as a blank control. The plates were taken out after the cells were incubated with compounds for 24 h, and 20 µL of MTT solution (5 mg/mL) (Wuhan Boster Biotechnology Limited Company, Wuhan, China; item No. AR1156) was added into all the wells. After another time of incubation for 4 h at 37 °C, the nutrient solution in each well was discarded slowly, and 150 µL of DMSO was added to each well. The plates were shaken on a shaking table for 20 min. When the crystals were fully dissolved, the blank wells were used to zero the plate reader. The optical density (OD) of each well was detected at 490 nm. The IC50 value was determined as the concentration of the inhibitor that caused 50% inhibition. Using probability unit and weighted regression method to calculate the IC50 value of compounds.

HepG2 cells = experiment: MTT assay HepG2; type: cell-based; details: Homo sapiens, 24h of treatment, mean ± SD
Protocol: as §1, §2

MDA-MB-231 cells = experiment: MTT assay MDA-MB-231; type: cell-based; details: Homo sapiens, 24h of treatment, mean ± SD
Protocol: as §1, §2

EGFR kinase = EGFR kinase (Homo sapiens, UniProt P00533); experiment: ADP-Glo kinase assay, EGFR; type: biochemical; details: averages from triplicate assays
Chain of EGFR kinase (P00533 25-1210): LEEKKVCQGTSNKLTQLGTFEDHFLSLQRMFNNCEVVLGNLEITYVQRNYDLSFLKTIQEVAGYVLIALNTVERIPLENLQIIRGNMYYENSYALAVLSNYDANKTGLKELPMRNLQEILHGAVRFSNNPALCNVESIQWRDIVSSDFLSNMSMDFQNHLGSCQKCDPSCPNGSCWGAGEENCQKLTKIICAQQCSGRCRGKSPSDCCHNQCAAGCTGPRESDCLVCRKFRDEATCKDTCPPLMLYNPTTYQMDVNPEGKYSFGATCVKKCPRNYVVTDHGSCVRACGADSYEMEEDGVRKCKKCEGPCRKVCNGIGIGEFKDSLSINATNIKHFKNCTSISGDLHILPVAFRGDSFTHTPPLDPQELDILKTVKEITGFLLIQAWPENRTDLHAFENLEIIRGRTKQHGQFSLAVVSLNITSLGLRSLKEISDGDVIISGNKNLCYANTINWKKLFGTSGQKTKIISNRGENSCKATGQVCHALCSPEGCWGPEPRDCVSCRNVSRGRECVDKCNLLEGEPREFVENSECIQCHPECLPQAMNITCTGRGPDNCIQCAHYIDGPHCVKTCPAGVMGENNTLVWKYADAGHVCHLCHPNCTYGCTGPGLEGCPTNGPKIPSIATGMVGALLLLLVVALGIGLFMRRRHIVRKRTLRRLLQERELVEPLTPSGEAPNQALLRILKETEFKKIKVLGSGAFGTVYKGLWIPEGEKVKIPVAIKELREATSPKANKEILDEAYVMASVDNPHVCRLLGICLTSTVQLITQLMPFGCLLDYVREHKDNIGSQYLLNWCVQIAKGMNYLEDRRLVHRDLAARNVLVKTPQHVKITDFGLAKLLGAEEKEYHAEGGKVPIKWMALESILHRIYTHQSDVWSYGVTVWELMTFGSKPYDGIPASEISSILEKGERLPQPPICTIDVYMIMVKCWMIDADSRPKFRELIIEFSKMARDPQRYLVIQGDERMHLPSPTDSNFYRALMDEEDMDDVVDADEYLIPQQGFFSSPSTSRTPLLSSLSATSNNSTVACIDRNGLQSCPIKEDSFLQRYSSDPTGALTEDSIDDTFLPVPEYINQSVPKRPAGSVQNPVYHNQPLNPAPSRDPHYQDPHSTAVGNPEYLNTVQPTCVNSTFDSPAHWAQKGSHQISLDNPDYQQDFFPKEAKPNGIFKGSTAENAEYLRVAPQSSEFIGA
Protocol: (§3) The ADP-Glo™ kinase assay (Promega, Madison, WI) was used to screen target compounds for their inhibition effects for BRaf, EGFR kinase. The kinase assay was carried out in a 96-well plate, in a volume of 25 μL HEPES (pH 7.3) solvent containing 1.6 μg/mL EGF, and 20 ng of EGFR kinase, or 50 ng BRaf kinase, and 10 μM ATP (Promega, Madison, WI). […] Reactions in each well were started immediately by adding ATP and kept going for half an hour under 30 °C in a constant temperature incubator (Bluepard, Shanghai, China). After the plate cooled for 5 min at room temperature, 25 μl of ADP-Glo reagent was added into each well to stop the reaction and consume the remaining […] within 40 min. At the end, 50 μl of kinase detection reagent was added into the well and incubated for 1 h to produce a luminescence signal.

BRaf kinase = BRaf kinase (Homo sapiens, UniProt P15056); experiment: ADP-Glo kinase assay, BRaf; type: biochemical; details: averages from triplicate assays
Chain of BRaf kinase (P15056 whole entry): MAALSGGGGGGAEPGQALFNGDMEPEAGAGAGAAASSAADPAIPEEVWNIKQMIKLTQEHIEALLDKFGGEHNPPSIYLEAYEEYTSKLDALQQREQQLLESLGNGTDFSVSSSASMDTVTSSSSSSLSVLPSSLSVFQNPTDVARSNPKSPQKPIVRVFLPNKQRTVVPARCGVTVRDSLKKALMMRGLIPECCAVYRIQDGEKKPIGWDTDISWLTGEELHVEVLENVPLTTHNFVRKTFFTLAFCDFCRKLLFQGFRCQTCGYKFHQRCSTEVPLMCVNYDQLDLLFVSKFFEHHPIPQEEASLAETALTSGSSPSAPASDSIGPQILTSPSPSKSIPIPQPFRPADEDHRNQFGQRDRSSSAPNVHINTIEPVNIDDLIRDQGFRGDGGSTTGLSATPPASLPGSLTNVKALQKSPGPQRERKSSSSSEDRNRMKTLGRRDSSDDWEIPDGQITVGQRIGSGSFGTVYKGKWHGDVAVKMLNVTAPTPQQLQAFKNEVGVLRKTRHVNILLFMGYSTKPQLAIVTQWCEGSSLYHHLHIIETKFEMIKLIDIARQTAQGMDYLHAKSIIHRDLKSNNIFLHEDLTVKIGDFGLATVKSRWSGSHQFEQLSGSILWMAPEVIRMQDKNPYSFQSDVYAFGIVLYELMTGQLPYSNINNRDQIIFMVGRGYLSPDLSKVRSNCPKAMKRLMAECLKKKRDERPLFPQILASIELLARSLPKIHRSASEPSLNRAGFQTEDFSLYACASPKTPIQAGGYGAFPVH
Protocol: as §3

human TS (hTS) = molecular target: T1, human TS (hTS) (Homo sapiens, UniProt P04818); experiment: Thymidylate synthase (TS) spectrophotometric assay; type: biochemical; details: averages from triplicate assays
T1 construct: purchased ProSpec-Tany
T1 sequence (P04818 whole entry): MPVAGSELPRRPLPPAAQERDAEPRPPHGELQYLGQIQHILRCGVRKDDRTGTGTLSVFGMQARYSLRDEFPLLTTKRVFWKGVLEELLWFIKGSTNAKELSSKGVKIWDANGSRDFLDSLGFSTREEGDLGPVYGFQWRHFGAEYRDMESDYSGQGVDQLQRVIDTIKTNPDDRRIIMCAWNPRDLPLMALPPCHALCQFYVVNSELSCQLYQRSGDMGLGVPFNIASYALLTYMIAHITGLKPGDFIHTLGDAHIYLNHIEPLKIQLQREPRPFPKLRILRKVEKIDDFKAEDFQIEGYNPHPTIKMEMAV
Protocol: Recombinant human thymidylate synthase purchased from ProSpec-Tany Company. TS was assayed spectrophotometrically at 30 °C and pH 7.4 in a mixture containing 0.1 M 2-mercaptoethanol, 0.0003 M (6R,S)-tetrahydrofolate, 0.012 M formaldehyde, 0.02 M MgCl2, 0.001 M dUMP, 0.04 M Tris–HCl, 30 nM hTS, and 0.00075 M NaEDTA. […] The reaction was initiated by the addition of an amount of enzyme yielding a change in absorbance at 340 nm of 0.016/min in the absence of inhibitor.

SGC7901 cells = experiment: MTT assay SGC7901; type: cell-based; details: Homo sapiens, SGC-7901, 24h of treatment, mean ± SD
Protocol: as §1, §2

HCT-116 cells = experiment: MTT assay HCT-116; type: cell-based; details: Homo sapiens, 24h of treatment, mean ± SD
Protocol: as §1, §2

OVCAR-3 cells = experiment: MTT assay OVCAR-3; type: cell-based; details: Homo sapiens, 24h of treatment, mean ± SD
Protocol: as §1, §2

Structure (SMILES)	IC50 (A549 cells) [µM]	IC50 (HepG2 cells) [µM]	IC50 (MDA-MB-231 cells) [µM]	melting point [°C]	IC50 (EGFR kinase) [µM]	IC50 (BRaf kinase) [µM]	IC50 (human TS (hTS)) [µM]	IC50 (SGC7901 cells) [µM]	IC50 (HCT-116 cells) [µM]	IC50 (OVCAR-3 cells) [µM]
O=C(Nc1ccc(Cl)cc1)Nc1ccccc1NS(=O)(=O)c1c[nH]c(=O)[nH]c1=O [Compound L14f, N'-(4-chlorophenyl)-2-(2,4-dihydroxypyrimidine-5-sulfonamido)phenyl urea]	1.38 ± 0.27	1.62 ± 0.1	4.54 ± 0.41	160 to 163	2.23	1.71	2.12	3.98 ± 0.33	4.22 ± 0.31	6.52 ± 0.5
Cc1ccccc1NC(=O)Nc1cccc(NS(=O)(=O)c2c[nH]c(=O)[nH]c2=O)c1 [Compound L15g, N'-(2-methylphenyl)-3-(2,4-dihydroxypyrimidine-5-sulfonamido)phenyl urea]	8.75 ± 0.61	7.66 ± 0.78	> 10	163 to 167	> 10	> 10	> 10	7.04 ± 0.87	6.41 ± 1.83	> 10
Cc1cccc(NC(=O)Nc2cccc(NS(=O)(=O)c3c[nH]c(=O)[nH]c3=O)c2)c1 [Compound L15h, N'-(3-methylphenyl)-3-(2,4-dihydroxypyrimidine-5-sulfonamido)phenyl urea]	1.46 ± 0.5	5.97 ± 0.21	6.41 ± 0.41	165 to 169	7.1	6.38	7.16	4.78 ± 0.62	6.15 ± 0.53	5.98 ± 0.6
CNC(=O)c1cc(Oc2ccc(NC(=O)Nc3ccc(Cl)c(C(F)(F)F)c3)cc2)ccn1 [Sorafenib, reference compound]	> 10	8.21 ± 0.34	> 10	–	–	–	–	> 10	> 10	> 10
O=C(Nc1cccc(Cl)c1)Nc1cccc(NS(=O)(=O)c2c[nH]c(=O)[nH]c2=O)c1 [Compound L15e, N'-(3-chlorophenyl)-3-(2,4-dihydroxypyrimidine-5-sulfonamido)phenylurea]	0.87 ± 0.28	2.29 ± 0.29	3.13 ± 0.09	162 to 166	4.37	2.96	2.17	2.58 ± 0.43	3.3 ± 0.07	1.19 ± 0.49
Cc1ccc(NC(=O)Nc2ccccc2NS(=O)(=O)c2c[nH]c(=O)[nH]c2=O)cc1 [Compound L14i, N'-(4-methylphenyl)-2-(2,4-dihydroxypyrimidine-5-sulfonamido)phenylurea]	1.37 ± 0.45	5.72 ± 0.21	7.3 ± 0.1	165 to 169	> 10	5.45	6.98	5.13 ± 0.44	5.62 ± 0.61	> 10
Cc1cccc(NC(=O)Nc2ccccc2NS(=O)(=O)c2c[nH]c(=O)[nH]c2=O)c1 [Compound L14h, N'-(3-methylphenyl)-2-(2,4-dihydroxypyrimidine-5-sulfonamido)phenylurea]	1.45 ± 0.06	> 10	7.16 ± 0.9	155 to 158	4.28	3.61	3.52	3.3 ± 0.15	5.39 ± 0.41	7.3 ± 0.68
Cc1ccccc1NC(=O)Nc1ccc(NS(=O)(=O)c2c[nH]c(=O)[nH]c2=O)cc1 [Compound L13g, N'-(2-methylphenyl)-4-(2,4-dihydroxypyrimidine-5-sulfonamido)phenyl urea]	4.68 ± 0.11	9.16 ± 0.12	> 10	169 to 173	> 10	> 10	9.25	6.39 ± 0.19	4.75 ± 0.07	2.68 ± 0.38
O=C(Nc1ccc(NS(=O)(=O)c2c[nH]c(=O)[nH]c2=O)cc1)Nc1ccccc1Cl [Compound L13d, N'-(2-chlorophenyl)-4-(2,4-dihydroxypyrimidine-5-sulfonamido)phenylurea]	2.01 ± 0.14	6.56 ± 0.15	> 10	167 to 169	4.22	2.39	2.36	5.3 ± 0.28	4.13 ± 0.16	1.73 ± 0.44
O=C(Nc1ccccc1Cl)Nc1ccccc1NS(=O)(=O)c1c[nH]c(=O)[nH]c1=O [Compound L14d, N'-(2-chlorophenyl)-2-(2,4-dihydroxypyrimidine-5-sulfonamido)phenyl urea]	3.29 ± 0.3	2.2 ± 0.06	6.71 ± 0.18	151 to 153	2.39	1.62	1.91	5.22 ± 0.18	4.96 ± 0.63	7.27 ± 1.23
O=C(Nc1ccc(Cl)cc1)Nc1cccc(NS(=O)(=O)c2c[nH]c(=O)[nH]c2=O)c1 [Compound L15f, N'-(4-chlorophenyl)-3-(2,4-dihydroxypyrimidine-5-sulfonamido)phenylurea]	1.01 ± 0.11	3.07 ± 0.29	3.2 ± 0.62	169 to 171	5.54	2.68	1.55	4.28 ± 0.67	7.61 ± 0.04	1.49 ± 0.28
O=C(Nc1cccc(NS(=O)(=O)c2c[nH]c(=O)[nH]c2=O)c1)Nc1ccccc1Cl [Compound L15d, N'-(2-chlorophenyl)-3-(2,4-dihydroxypyrimidine-5-sulfonamido)phenylurea]	1.87 ± 0.12	4.97 ± 0.36	2.04 ± 0.29	159 to 162	7.65	4.09	3.81	5.25 ± 0.81	2.65 ± 0.33	6.3 ± 0.25
Cc1ccccc1NC(=O)Nc1ccccc1NS(=O)(=O)c1c[nH]c(=O)[nH]c1=O [Compound L14g, N'-(2-methylphenyl)-2-(2,4-dihydroxypyrimidine-5-sulfonamido)phenyl urea]	2.09 ± 0.72	5.59 ± 0.64	> 10	151 to 154	> 10	7.41	6.47	5.4 ± 0.09	4.82 ± 0.19	> 10
Cc1ccc(NC(=O)Nc2cccc(NS(=O)(=O)c3c[nH]c(=O)[nH]c3=O)c2)cc1 [Compound L15i, N'-(4-methylphenyl)-3-(2,4-dihydroxypyrimidine-5-sulfonamido)phenyl urea]	4.18 ± 0.46	6.96 ± 0.59	9.06 ± 1.13	173 to 175	8.67	7.23	8.3	6.96 ± 1.53	9.5 ± 1.6	> 10
Cc1cccc(NC(=O)Nc2ccc(NS(=O)(=O)c3c[nH]c(=O)[nH]c3=O)cc2)c1 [Compound L13h, N'-(3-methylphenyl)-4-(2,4-dihydroxypyrimidine-5-sulfonamido)phenylurea]	1.85 ± 0.13	5.83 ± 0.18	> 10	179 to 182	3.99	3.53	4.57	6.35 ± 0.52	5.46 ± 1.21	9.56 ± 0.94
